# Test results: ChEMBL document CHEMBL4507319 (2021)
# How the values were obtained:
# [1] = biological target: T1, Activin receptor type-1B (Homo sapiens) (UniProt P36896); test: ALK4(h) Eurofins kinase panel; conditions: Compound concentration 1.0 uM
# T1 sequence (whole entry): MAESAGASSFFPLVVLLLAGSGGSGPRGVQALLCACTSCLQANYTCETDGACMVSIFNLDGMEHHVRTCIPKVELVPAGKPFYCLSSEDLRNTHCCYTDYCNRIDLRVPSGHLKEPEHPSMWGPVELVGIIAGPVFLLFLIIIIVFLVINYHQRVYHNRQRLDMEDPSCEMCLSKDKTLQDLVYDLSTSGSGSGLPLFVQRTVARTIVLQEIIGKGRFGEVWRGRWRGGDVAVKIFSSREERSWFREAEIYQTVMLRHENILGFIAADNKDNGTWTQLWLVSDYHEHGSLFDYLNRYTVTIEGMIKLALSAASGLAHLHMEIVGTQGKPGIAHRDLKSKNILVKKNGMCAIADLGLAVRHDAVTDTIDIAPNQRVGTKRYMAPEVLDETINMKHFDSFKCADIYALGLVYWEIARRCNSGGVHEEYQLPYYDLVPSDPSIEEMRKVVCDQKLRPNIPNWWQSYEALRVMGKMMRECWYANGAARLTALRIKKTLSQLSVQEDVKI
# [2] = biological target: T2, Serine/threonine-protein kinase 4 (Homo sapiens) (UniProt Q13043); test: MST1(h) Eurofins kinase panel; conditions: Compound concentration 1.0 uM
# T2 sequence (whole entry): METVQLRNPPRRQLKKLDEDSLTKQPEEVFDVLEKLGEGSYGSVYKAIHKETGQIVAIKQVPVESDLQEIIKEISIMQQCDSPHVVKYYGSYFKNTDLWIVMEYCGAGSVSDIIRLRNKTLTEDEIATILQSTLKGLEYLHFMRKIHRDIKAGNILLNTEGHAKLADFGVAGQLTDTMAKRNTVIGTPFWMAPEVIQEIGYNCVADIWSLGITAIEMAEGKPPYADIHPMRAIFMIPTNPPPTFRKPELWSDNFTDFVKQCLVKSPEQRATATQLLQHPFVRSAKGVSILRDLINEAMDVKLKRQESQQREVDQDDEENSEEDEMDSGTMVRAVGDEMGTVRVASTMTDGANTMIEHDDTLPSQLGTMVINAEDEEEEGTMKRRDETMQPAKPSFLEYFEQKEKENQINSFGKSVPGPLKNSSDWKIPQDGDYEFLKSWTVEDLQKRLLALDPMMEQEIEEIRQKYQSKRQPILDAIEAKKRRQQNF
# [3] = biological target: Serine/threonine-protein kinase PLK3 (Homo sapiens) (UniProt Q9H4B4); test: Plk3(h) Eurofins kinase panel; conditions: Compound concentration 1.0 uM
# [4] = biological target: Insulin-like growth factor 1 receptor (Homo sapiens) (UniProt P08069); test: IGF-1R(h) Eurofins kinase panel; conditions: Compound concentration 1.0 uM
# [5] = biological target: Serine/threonine-protein kinase B-raf (Homo sapiens) (UniProt P15056); test: B-Raf(h) Eurofins kinase panel; conditions: Compound concentration 1.0 uM
# U2OS = test: U2-OS cell line Proliferation assay; assay type: functional, Homo sapiens; conditions: time 3 day
# [6] = biological target: Mitogen-activated protein kinase 1 (Homo sapiens) (UniProt P28482); test: MAPK2(h) Eurofins kinase panel; conditions: Compound concentration 1.0 uM
# [7] = biological target: Serine/threonine-protein kinase/endoribonuclease IRE1 (Homo sapiens) (UniProt O75460); test: IRE1(h) Eurofins kinase panel; conditions: Compound concentration 1.0 uM
# [8] = biological target: Cyclin-dependent kinase 2/cyclin A (Homo sapiens) (UniProt P24941+P20248+P78396); test: CDK2/cyclinA(h) Eurofins kinase panel; assay type: protein-complex assay; conditions: Compound concentration 1.0 uM
# [9] = biological target: Dual specificity tyrosine-phosphorylation-regulated kinase 1A (Homo sapiens) (UniProt Q13627); test: DYRK1A(h) Eurofins kinase panel; conditions: Compound concentration 1.0 uM
# [10] = biological target: Calcium/calmodulin-dependent protein kinase type 1B (Homo sapiens) (UniProt Q6P2M8); test: CaMKIbeta(h) Eurofins kinase panel; conditions: Compound concentration 1.0 uM
# [11] = biological target: Serine/threonine-protein kinase MRCK beta (Homo sapiens) (UniProt Q9Y5S2); test: MRCKbeta(h) Eurofins kinase panel; conditions: Compound concentration 1.0 uM
# Sequence of Serine/threonine-protein kinase MRCK beta (Homo sapiens) (Q9Y5S2 whole entry): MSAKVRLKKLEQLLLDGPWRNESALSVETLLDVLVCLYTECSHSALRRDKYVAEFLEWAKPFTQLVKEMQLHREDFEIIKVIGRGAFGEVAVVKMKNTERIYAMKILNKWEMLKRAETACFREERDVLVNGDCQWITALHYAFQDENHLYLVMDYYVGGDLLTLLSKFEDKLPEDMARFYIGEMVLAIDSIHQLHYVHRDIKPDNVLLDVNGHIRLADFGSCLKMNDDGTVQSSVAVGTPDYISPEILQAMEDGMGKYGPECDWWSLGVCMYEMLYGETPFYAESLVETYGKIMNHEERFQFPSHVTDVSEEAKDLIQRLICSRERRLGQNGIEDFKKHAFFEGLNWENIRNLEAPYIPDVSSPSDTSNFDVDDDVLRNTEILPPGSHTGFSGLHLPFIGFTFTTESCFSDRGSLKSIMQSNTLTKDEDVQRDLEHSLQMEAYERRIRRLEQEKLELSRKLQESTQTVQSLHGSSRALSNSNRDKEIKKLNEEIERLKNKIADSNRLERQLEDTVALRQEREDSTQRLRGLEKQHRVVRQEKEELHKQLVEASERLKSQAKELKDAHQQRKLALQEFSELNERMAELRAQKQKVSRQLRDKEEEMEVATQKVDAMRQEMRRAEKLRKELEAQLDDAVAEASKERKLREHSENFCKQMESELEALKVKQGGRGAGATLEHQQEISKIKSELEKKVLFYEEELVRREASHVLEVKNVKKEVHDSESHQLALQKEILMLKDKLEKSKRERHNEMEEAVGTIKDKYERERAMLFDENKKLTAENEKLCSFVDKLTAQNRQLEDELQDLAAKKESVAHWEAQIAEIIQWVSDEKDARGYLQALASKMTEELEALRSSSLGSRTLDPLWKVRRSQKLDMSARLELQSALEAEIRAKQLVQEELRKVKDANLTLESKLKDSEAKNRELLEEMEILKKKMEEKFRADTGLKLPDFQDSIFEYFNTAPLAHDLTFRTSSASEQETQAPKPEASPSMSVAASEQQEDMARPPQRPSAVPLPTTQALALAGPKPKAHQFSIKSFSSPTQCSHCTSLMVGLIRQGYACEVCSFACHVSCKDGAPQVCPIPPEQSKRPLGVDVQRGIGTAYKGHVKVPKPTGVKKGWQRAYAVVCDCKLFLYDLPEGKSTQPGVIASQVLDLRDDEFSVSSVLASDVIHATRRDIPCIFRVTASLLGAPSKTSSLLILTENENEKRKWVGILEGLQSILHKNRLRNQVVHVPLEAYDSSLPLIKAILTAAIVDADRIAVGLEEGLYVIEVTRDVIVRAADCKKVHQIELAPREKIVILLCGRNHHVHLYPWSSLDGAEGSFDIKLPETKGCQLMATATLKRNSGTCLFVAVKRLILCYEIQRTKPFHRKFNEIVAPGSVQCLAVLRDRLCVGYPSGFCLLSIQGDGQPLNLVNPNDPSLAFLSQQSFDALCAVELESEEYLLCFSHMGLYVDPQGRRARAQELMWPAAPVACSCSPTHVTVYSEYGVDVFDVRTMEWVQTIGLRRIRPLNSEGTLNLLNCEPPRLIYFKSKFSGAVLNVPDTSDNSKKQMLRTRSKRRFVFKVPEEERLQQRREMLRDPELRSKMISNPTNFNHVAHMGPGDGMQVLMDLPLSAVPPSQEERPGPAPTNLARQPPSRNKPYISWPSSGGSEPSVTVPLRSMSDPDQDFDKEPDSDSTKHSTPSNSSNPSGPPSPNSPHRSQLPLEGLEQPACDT
# Sequence of Mitogen-activated protein kinase 1 (Homo sapiens) (P28482 whole entry): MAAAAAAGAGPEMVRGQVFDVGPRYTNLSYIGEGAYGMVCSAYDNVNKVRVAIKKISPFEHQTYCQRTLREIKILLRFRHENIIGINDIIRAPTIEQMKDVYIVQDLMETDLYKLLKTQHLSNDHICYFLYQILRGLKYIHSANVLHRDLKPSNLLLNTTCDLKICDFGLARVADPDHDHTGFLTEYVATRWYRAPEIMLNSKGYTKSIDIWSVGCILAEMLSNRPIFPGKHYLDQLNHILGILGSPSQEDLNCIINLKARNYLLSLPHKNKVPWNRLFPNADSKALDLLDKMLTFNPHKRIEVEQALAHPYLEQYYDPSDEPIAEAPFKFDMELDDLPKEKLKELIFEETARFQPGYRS
# Sequence of Serine/threonine-protein kinase/endoribonuclease IRE1 (Homo sapiens) (O75460 19-977 limits assumed): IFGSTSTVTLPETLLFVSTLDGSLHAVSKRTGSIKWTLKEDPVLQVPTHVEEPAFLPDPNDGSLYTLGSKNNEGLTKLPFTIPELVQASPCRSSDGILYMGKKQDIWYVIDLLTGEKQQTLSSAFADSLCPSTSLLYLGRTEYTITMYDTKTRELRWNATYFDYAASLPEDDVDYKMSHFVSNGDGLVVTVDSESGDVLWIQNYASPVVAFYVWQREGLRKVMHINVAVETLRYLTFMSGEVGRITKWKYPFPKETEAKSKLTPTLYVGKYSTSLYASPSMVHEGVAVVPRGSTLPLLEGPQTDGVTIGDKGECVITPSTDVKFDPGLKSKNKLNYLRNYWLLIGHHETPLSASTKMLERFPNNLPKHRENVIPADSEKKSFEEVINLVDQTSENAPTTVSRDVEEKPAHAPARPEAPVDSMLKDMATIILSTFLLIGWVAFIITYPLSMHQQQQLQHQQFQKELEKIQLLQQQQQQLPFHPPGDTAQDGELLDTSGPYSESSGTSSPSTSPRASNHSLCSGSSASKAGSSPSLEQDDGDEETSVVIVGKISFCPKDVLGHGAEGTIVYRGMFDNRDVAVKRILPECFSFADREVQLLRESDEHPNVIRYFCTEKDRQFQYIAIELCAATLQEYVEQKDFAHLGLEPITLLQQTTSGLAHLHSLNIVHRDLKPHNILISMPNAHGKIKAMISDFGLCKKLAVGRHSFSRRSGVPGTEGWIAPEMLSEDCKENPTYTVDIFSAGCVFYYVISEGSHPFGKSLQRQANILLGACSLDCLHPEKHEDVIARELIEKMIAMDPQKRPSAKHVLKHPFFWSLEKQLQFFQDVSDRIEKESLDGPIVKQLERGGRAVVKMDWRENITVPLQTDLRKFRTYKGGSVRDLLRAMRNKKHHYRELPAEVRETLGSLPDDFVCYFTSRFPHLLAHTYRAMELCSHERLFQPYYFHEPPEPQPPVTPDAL
# Sequence of Insulin-like growth factor 1 receptor (Homo sapiens) (P08069 31-736 limits assumed): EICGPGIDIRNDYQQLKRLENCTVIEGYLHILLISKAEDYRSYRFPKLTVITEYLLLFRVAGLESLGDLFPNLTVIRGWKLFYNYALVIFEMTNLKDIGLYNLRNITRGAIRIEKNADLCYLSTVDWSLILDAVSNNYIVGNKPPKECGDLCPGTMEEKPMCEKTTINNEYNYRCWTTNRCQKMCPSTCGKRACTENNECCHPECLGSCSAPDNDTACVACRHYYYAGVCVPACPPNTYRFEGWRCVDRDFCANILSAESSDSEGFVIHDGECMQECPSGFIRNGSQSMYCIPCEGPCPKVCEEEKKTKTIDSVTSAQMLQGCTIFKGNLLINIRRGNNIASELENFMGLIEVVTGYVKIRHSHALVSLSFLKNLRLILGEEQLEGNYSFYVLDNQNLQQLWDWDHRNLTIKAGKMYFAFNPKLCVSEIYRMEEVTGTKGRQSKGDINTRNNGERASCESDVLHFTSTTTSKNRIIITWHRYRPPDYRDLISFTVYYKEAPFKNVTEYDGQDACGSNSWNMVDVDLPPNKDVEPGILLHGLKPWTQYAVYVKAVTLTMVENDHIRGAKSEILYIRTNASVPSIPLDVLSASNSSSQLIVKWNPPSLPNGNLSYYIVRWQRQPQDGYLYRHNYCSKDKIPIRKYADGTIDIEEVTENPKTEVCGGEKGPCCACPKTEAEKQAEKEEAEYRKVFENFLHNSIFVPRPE
# Sequence of Insulin-like growth factor 1 receptor (Homo sapiens) (P08069 741-1367 limits assumed): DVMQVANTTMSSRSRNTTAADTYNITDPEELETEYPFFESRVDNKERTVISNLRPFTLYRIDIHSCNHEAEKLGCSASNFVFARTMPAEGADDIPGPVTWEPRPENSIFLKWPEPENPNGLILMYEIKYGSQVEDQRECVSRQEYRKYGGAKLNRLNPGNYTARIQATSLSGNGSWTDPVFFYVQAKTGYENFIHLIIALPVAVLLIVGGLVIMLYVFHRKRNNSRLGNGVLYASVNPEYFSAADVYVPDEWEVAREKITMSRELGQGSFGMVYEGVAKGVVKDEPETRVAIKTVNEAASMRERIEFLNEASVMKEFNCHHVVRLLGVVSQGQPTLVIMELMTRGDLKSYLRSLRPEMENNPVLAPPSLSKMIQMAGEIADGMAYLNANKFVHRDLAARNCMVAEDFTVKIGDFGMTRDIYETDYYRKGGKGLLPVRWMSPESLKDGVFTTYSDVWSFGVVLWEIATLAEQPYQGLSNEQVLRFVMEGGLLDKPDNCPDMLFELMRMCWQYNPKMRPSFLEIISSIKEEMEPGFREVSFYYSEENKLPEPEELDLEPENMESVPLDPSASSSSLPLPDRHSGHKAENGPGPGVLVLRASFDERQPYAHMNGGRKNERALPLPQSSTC
# Sequence of Serine/threonine-protein kinase PLK3 (Homo sapiens) (Q9H4B4 whole entry, looked up): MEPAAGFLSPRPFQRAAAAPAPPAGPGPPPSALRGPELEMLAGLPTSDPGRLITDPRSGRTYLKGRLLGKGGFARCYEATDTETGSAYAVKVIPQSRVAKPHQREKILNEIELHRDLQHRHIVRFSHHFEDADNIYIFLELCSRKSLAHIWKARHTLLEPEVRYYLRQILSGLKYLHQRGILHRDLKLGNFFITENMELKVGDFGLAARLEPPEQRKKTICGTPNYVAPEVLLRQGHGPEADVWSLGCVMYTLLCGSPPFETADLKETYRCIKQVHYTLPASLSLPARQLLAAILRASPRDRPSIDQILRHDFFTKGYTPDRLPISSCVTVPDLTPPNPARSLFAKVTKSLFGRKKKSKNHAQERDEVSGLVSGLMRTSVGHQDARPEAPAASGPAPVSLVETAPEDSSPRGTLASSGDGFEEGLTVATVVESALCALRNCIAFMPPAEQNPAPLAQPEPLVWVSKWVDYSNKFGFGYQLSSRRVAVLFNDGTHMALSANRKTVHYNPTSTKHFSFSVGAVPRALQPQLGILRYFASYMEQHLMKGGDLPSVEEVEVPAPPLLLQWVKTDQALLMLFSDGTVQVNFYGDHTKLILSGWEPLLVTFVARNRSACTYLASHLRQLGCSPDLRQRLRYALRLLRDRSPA
structure (smiles),measurement,setting,value
CCc1ccccc1C(=O)Nc1n[nH]c2c(C)c(F)c(C3C(C#N)=C(C)N(C)C(C)=C3C#N)cc12 [BAY-3827],% residual kinase activity,[1],90%
same,% residual kinase activity,[2],73%
same,% residual kinase activity,[3],127%
same,% residual kinase activity,[4],110%
same,% residual kinase activity,[5],99%
same,Cell Proliferation IC50,U2OS,18.7 µM
same,% residual kinase activity,[6],102%
same,% residual kinase activity,[7],104%
same,% residual kinase activity,[8],100%
same,% residual kinase activity,[9],107%
same,% residual kinase activity,[10],91%
same,% residual kinase activity,[11],109%
